Source: patent US8097619B2, “Inhibitors of cyclin-dependent kinases, compositions and uses related thereto” (Agennix USA Inc., priority 2003, dated 2012)

How the values were obtained:
[1] = tested on: peripheral blood mononuclear cells (PBMCs); assay: Cytotoxicity in PBMCs (MTS assay); type: cell-based, human; details: read-out: TC50 (μM): 50% cytoxicity (MTS), 7 days
Description: (§1) The activity of the certain compounds of the invention was evaluated in peripheral blood mononuclear cells (PBMCs) infected with the low passage, clinical isolate HIV-1ROJO to generate a measure of the efficacy of these compounds in acutely infected cells. The use of these normal human cells allows an estimate of the therapeutic index of these compounds to be made. Fresh PBMCs from two donors were pooled and stimulated with PHA-P for 48-72 hours. The cells were then cultured in the presence of IL-2 to maintain the cell division initiated by the mitogenic signal. The virus was added at a multiplicity of infection of 0.1. The cells were cultured for 7 days post infection prior to the evaluation of efficacy. Viral replication was measured by the level of reverse transcriptase activity in the supernatant and cytotoxicity was measured with the MTS assay.

[2] = tested on: HIV-1ROJO; assay: Antiviral activity in infected PBMCs (reverse transcriptase in supernatant); type: cell-based
Description: as §1

[3] = tested on: HCT-116 cells; assay: Cell cycle analysis with propidium iodide (FACS); type: cell-based, human; details: exposure 24, 48 and 72 hours
Description: The percentage of cells in the G1, S and G2/M phases of the cell cycle was determined by staining DNA with propidium iodide and quantifying the number of cells with a 2N or 4N DNA complement by flow cytometry. Alterations in the distribution of cells across the cell cycle in response to exposure to the Cdk inhibitors was evaluated in this manner.
3 sets of HCT-116 cells (100,000 cells/set) were cultured in the presence of a test compound in T-25 flasks according to Table 1 below. Analysis was performed at 24, 48 and 72 hours. Adherent cells were collected by trypsinization, combined with floating cells in Falcon 12×75 flow cytometric tubes, and harvested by centrifugation. The media was decanted from the cell pellet, 100 μl of PI stain was added and the cells were incubated at 37° C. for 20-25 minutes. The cell count was preferably no greater than 2×10^6-4×10^6/ml. An equal volume (100 μl) of PI salt was then added to the cells, which were then incubated at 4° C. for 1-2 hours. The stained cells were analyzed on a Becton Dickinson FACScan flow cytometer. Samples were protected from light.

[4] = tested on: HCT-116 cells; assay: Calcein AM viability assay, HCT-116; type: cell-based; details: Homo sapiens, non-protein adjusted, Table 6
Description: The potency of Cdk inhibitors, as measured by loss of cellular viability, was determined with the Calcein AM assay (Molecular Probes). Calcein AM is a substrate of intracellular esterases, which is cleaved only in viable cells to generate a fluorescent product that can be quantified with a fluorescent plate reader. The fluorescent signal is proportional to the number of viable cells, and thus loss of signal in response to the exposure of cells to Cdk inhibitors correlates with a loss of viability. This assay can distinguish cell cycle arrest, in which cells may still by viable, from loss of viability and is thus well suited for the evaluation of Cdk inhibitors. A compound that is a potent cytotoxic, may cause significant loss of cell viability in such assay.
Cellular IC50's were determined in the human colorectal carcinoma cell line, HCT-116, and the normal human fibroblast, IMR90. Protein adjusted IC50's were also determined in HCT-116.
HCT-116 or IMR90 cells were recovered from sub-confluent plates by trypsinization and 1,000 or 4,000 cells, respectively, were plated in 24-well dishes and incubated overnight at 37° C., 5% CO2. […]
A 5 μM Calcein AM solution was prepared by dissolving a 50 μg aliquot of Calcein (Molecular Probes catalog #C3100) in 50 μl DMSO. […] (protected from light) and the fluorescent signal was read on a fluorescent plate reader (excitation 485/20 and emission 530/25).

[5] = tested on: HCT-116 cells; assay: Clonogenic survival assay with HCT-116 cells; type: cell-based, human; details: at 100 nM, time-course (FIG. 3)
Description: This assay was used to determine the concentration of a compound that results irreversible loss of viability after a specified period of exposure. Essentially, cells are exposed to compound for a period of 1, 2 or 5 days, and are then transferred to compound-free growth medium. After continued incubation in the compound-free medium for a number of days, the number of colonies recovered is counted as an estimate of the number of surviving cells.
Media (RPMI-1640, 10% FCS, pen/strep) was pre-warmed to 37° C. in a water bath. Cells were incubated and grown at 37° C., 5% CO2. Cells were recovered by trypsinization from sub-confluent plates and counted using a hemocytometer. 1×10^4 cells were plated in 25 mls of media in a 15 cm tissue culture dish. 14 plates were set up for each test compound, and were incubated overnight at 37° C. The compound was diluted into media at 7 concentrations and the media on the cells was replaced with that containing the test compound. Two plates were set up for each concentration of the compound to be tested, as well as two control plates without compound. […] Colonies were stained with crystal violet solution (0.4% crystal violet, 20% ethanol) for 5 minutes, washed twice with distilled water, and counted.

| Structure (SMILES) | TI: TC50/IC50 [2] | also measured |
| --- | --- | --- |
| Cc1cn([C@H]2C[C@H](N=[N+]=[N-])[C@@H](CO)O2)c(=O)[nH]c1=O [AZT, reference compound] | >100 | CC50 [1]: > 1 µM |
| CC(C)c1nn(-c2c(Cl)cccc2Cl)c2nc(Cc3ccc(OCCN4CCOCC4)c(O)c3)[nH]c(=O)c12 [Compound A32] | >10 | – |
| CC(C)N1CCN(C(=O)COc2ccc(-c3[nH]nc4c3C(=O)c3c(NC(=O)NN5CCOCC5)cccc3-4)cc2)CC1.Cl [Compound A37] | – | effect on cell cycle distribution (PI FACS) [3]: terminally arrested in G1 and G2, with evidence of apoptosis and endo-reduplication |
| CC(C)c1nn(-c2c(Cl)cc(Cl)cc2Cl)c2nc(Cc3ccc(OCCO)cc3)[nH]c(=O)c12 [Compound A61] | >10 | – |
| CC(C)c1nn(-c2c(Cl)cc(Cl)cc2Cl)c2nc(Cc3ccc(OCC(C)(C)O)cc3)[nH]c(=O)c12 [Compound A64] | >10 | – |
| O=C(Nc1cccc2c1C(=O)c1c(-c3ccc(CN4CCCC4CO)cc3)n[nH]c1-2)NN1CCOCC1 (centres unmarked) [Compound B6] | – | IC50 [4]: < 0.1 µM |
| COCCN1CCN(Cc2ccc(-c3[nH]nc4c3C(=O)c3c(NC(=O)NN5CCOCC5)cccc3-4)cc2)CC1.Cl.Cl [Compound B16] | – | time within which IC50 reached [5]: 30 to 60 min; effect on cell cycle distribution (PI FACS) [3]: Analogous results |
| CC(C)c1nn(-c2c(Cl)cccc2Cl)c2nc(Cc3ccc(CN4CCCC4)c(O)c3)[nH]c(=O)c12.Cl [Compound C3] | >10 | – |
| CC(C)c1nn(-c2c(Cl)cc(Cl)cc2Cl)c2nc(Cc3ccc(CNC(CO)CO)n3C)[nH]c(=O)c12.Cl [Compound C4] | >1 | – |
